“Also recorded” adds a separate entry of the source. Where two headings read alike, the source gives them in different places.
Key:
[1] = tested on: HT-29 (colon carcinoma) cells; assay: sulforhodamine B (SRB) cytotoxicity assay, HT-29; assay type: cell-based; conditions: for selectivity index (SI): GI50 on 3T3 cells divided by GI50 on HT-29; for GI50: Homo sapiens, HT-29 cells, SRB assay, read-out: growth inhibition (GI50)
From the text: (§1) MCF7 (ATCC HTB-22, breast adenocarcinoma), 786-0 (ATCC CRL-1932, renal cell adenocarcinoma), PC-03 (ATCC CRL-1435, prostatic adenocarcinoma), HT-29 (ATCCHTB-38, colorectal adenocarcinoma), and HEP2 (ATCC CCL-23, laryngeal carcinoma) cells donated by Dr. João Ernesto de Carvalho (CPQBA – UNICAMP), and NIH/3T3 cells (ATCC CRL-1658, mouse embryonic fibroblast), purchased from the Rio de Janeiro Cell Bank, were used for the evaluation of cytotoxic activity. Cell maintenance and treatment were performed as described by Freshney. The sulforhodamine B (SRB) assay was carried out according to Brandão et al. and Bogo et al..
(§2) The selectivity index (SI) measures a compound’s ability to target a neoplastic cell line rather than a normal cell line, indicating its potential for use in clinical trials. In the present study, the SI of each substance was calculated as the quotient of its GI50 value for normal NIH/3T3 cells divided by the GI50 value for a neoplastic cell line. SI values greater than 3.0 were considered significant.

[2] = tested on: B16-F10 (murine melanoma) cells; assay: sulforhodamine B (SRB) cytotoxicity assay, B16-F10; assay type: cell-based; conditions: for GI50: Mus musculus, B16-F10 cells, SRB assay, read-out: growth inhibition (GI50); for selectivity index (SI): GI50 on 3T3 cells divided by GI50 on B16-F10
From the text: [Worded in the source for another cell line; this cell line is reported under the same test.] as §1, §2

[3] = tested on: 786-0 (kidney carcinoma) cells; assay: sulforhodamine B (SRB) cytotoxicity assay, 786-0; assay type: cell-based; conditions: for selectivity index (SI): GI50 on 3T3 cells divided by GI50 on 786-0; for GI50: Homo sapiens, 786-0 cells, SRB assay, read-out: growth inhibition (GI50)
From the text: as §1, §2

[4] = tested on: NIH/3T3 (mouse embryonic fibroblast) cells; assay: sulforhodamine B (SRB) cytotoxicity assay, NIH/3T3 normal cells; assay type: cell-based; conditions: for GI50: Mus musculus, NIH3T3, NIH/3T3 normal cells, SRB assay, read-out: growth inhibition (GI50); for effect on normal cells in words: 3T3 cells
From the text: as §1, §2

[5] = tested on: tested tumor cells (786-0, MCF7, HT-29, PC-03, HEP2, B16-F10, UACC-62); assay: sulforhodamine B (SRB) cytotoxicity assay, results stated over several cell lines; assay type: cell-based; conditions: for cytotoxic activity in words: cell lines as named in the quoted words; for selectivity index (SI), range over all tumor cells: all tested tumor cells vs NIH/3T3
From the text: as §1, §2

[6] = tested on: MCF7 (breast carcinoma) cells; assay: sulforhodamine B (SRB) cytotoxicity assay, MCF7; assay type: cell-based; conditions: for selectivity index (SI): GI50 on 3T3 cells divided by GI50 on MCF7; for GI50: Homo sapiens, MCF7 cells, SRB assay, read-out: growth inhibition (GI50)
From the text: as §1, §2

[7] = tested on: HEP2 (laryngeal carcinoma) cells; assay: sulforhodamine B (SRB) cytotoxicity assay, HEP2; assay type: cell-based; conditions: for selectivity index (SI): GI50 on 3T3 cells divided by GI50 on HEP2; for GI50: Homo sapiens, HEp-2, HEP2 cells, SRB assay, read-out: growth inhibition (GI50)
From the text: as §1, §2

[8] = tested on: UACC-62 (human melanoma) cells; assay: sulforhodamine B (SRB) cytotoxicity assay, UACC-62; assay type: cell-based; conditions: for selectivity index (SI): GI50 on 3T3 cells divided by GI50 on UACC-62; for GI50: Homo sapiens, UACC-62 cells, SRB assay, read-out: growth inhibition (GI50)
From the text: [Worded in the source for another cell line; this cell line is reported under the same test.] as §1, §2

[9] = tested on: PC-03 (prostate carcinoma) cells; assay: sulforhodamine B (SRB) cytotoxicity assay, PC-03; assay type: cell-based; conditions: for selectivity index (SI): GI50 on 3T3 cells divided by GI50 on PC-03; for GI50: PC-03 cells, SRB assay, read-out: growth inhibition (GI50)
From the text: as §1, §2

[10] = all tested tumor cells, read-out: GI50, range over all tumor cells
[11] = listed as 8′-O-isopropyl-norstictic acid

Row | SMILES | selectivity index (SI) [1] | GI50 [1] | GI50 [2] | melting point | selectivity index (SI) [3] | GI50 [3] | GI50 [4] | cytotoxic activity in words [5] | selectivity index (SI) [6] | GI50 [6] | selectivity index (SI) [7] | GI50 [7] | selectivity index (SI) [8] | GI50 [8] | selectivity index (SI) [9] | GI50 [9] | selectivity index (SI) [2] | further results
1 | CCCOC1OC(=O)c2c(O)c(C)c3c(c21)Oc1c(C=O)c(O)cc(C)c1C(=O)O3 (stereo not drawn) [compound 2, 8′-O-n-propyl-norstictic acid] | 0.13 | 470 µM | > 600 µM | 183 °C | 0.43 | 140 µM | 63 µM | did not show activity against the tested tumor cells; also recorded: comparatively low activity against the cancerous cell lines | 0.15 | 410 µM | 0.94 | 70 µM | 1.2 | 50 µM | 2.03 | 30 µM | – | selectivity index (SI) ([9]; listed as n-propyl): 33.8; GI50 ([9]; listed as n-propyl): 1.28 µM
2 | CCCCOC1OC(=O)c2c(O)c(C)c3c(c21)Oc1c(C=O)c(O)cc(C)c1C(=O)O3 (stereo not drawn) [compound 3, 8′-O-n-butyl-norstictic acid] | 16.34 | 38.3 µM | 45 µM | 169 °C | 22.21 | 28.2 µM | 625 µM | – | 47.15 | 13.3 µM | 78.77 | 7.94 µM | 54.1 | 11.5 µM | 98.11 | 6.37 µM | 13.88 | effect on normal cells in words [4]: lowest effect on 3T3 cells; selectivity index (SI), range over all tumor cells [5]: 13.88–98.11; GI50 [5, 10]: 6.37 to 45 µM
3 | CCCCCOC1OC(=O)c2c(O)c(C)c3c(c21)Oc1c(C=O)c(O)cc(C)c1C(=O)O3 (stereo not drawn) [compound 4, 8′-O-n-pentyl-norstictic acid] | 1.50 | 38.2 µM | 55.4 µM | 175 °C | 0.75 | 76.2 µM | 57.2 µM | low biological activity | 3.69 | 15.5 µM | 1.19 | 48.2 µM | 1.51 | 37.8 µM | 6.53 | 8.77 µM | 1.03 | –
4 | CCCCCCOC1OC(=O)c2c(O)c(C)c3c(c21)Oc1c(C=O)c(O)cc(C)c1C(=O)O3 (stereo not drawn) [compound 5, 8′-O-n-hexyl-norstictic acid] | 7.66 | 7.16 µM | 56.3 µM | 178 °C | 1.75 | 31.4 µM | 54.9 µM | showed activity against MCF7, HT-29, PC-03, and HEP2 cells | 5.76 | 9.53 µM | 9.2 | 5.96 µM | 1.06 | 51.6 µM | 7.60 | 7.23 µM | 0.97 | GI50 ([5]; MCF7, HT-29, PC-03, and HEP2 cells, read-out: GI50, range): 5.96 to 9.53 µM
5 | Cc1cc(O)c(C=O)c2c1C(=O)Oc1c(C)c(O)c3c(c1O2)C(OC(C)C)OC3=O (stereo not drawn) [compound 6, 8′-O-isopropyl-norstictic acid] | 0.86 | 50.2 µM | 9.65 µM | 185 °C | 0.86 | 50.1 µM | 43.2 µM | active against PC-03, HEP2, B16-F10, and UACC-62 cells | 0.73 | 59.3 µM | 5.56 | 7.78 µM | 7.0 | 6.2 µM | 33.8 | 1.28 µM | 4.48 | selectivity index (SI) [2, 11]: 4.5; selectivity index (SI), range ([5]; PC-03, HEP2, B16-F10, and UACC-62 cells vs NIH/3T3): 4.48 to 33.8; GI50 ([5]; PC-03, HEP2, B16-F10, and UACC-62 cells, read-out: GI50, range): 1.28 to 9.65 µM; selectivity index (SI) [7, 11]: 5.5
6 | CCC(C)OC1OC(=O)c2c(O)c(C)c3c(c21)Oc1c(C=O)c(O)cc(C)c1C(=O)O3 (stereo not drawn) [compound 7, 8′-O-sec-butyl-norstictic acid] | 48.3 | 12.3 µM | 9.2 µM | 170 °C | 27.78 | 21.4 µM | 594 µM | – | 87.4 | 6.8 µM | 78.0 | 7.6 µM | 20.2 | 29.4 µM | 11.30 | 52.4 µM | 64.4 | effect on normal cells in words [4]: lowest effect on 3T3 cells; selectivity index (SI), range over all tumor cells [5]: 11.30–87.40; GI50 [5, 10]: 6.8 to 52.4 µM
7 | Cc1cc(O)c(C=O)c2c1C(=O)Oc1c(C)c(O)c3c(c1O2)C(OC(C)(C)C)OC3=O (stereo not drawn) [compound 8, 8′-O-tert-butyl-norstictic acid] | 0.28 | 139 µM | 90.3 µM | 196 °C | 0.6 | 63.3 µM | 38.5 µM | active only against PC-03 cells; also recorded: low biological activity | 0.6 | 64.2 µM | 0.66 | 57.8 µM | 0.57 | 67.1 µM | 5.0 | 7.6 µM | 0.42 | –

Source: publication PMC11539907, “Cytotoxicity of norstictic acid derivatives, a depsidone from Ramalina anceps Nyl” (Turkish Journal of Chemistry, 2024)
